pEC50: −log10 of the molar value. Like-named read-outs stand apart in the source and are kept apart here.
Target: human NAMPT (Homo sapiens, UniProt P43490)
Assay: Human recombinant enzyme assay (NMN fluorescence biochemical assay, activation of NAMPT)
Summary of the method: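 NMN production is detected fluorometrically (Ex 355/Em 460 nm) 40 min after acetophenone, KOH and formic acid derivatization. Reactions ran 60 min at ambient temperature: 6 nM human NAMPT, nicotinamide 150 μM, PRPP 20 μM, ATP 2.5 mM, buffered at pH 7.2 with 50 mM HEPES plus DTT, CHAPS, NaCl and 100 mM MgCl2.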

[1] = Table A, human recombinant NAMPT, NMN formation, 60 min
[2] = Table A, human recombinant NAMPT, NMN formation, 60 min, read-out: EC50 Human

human NAMPT, sequence (P43490 whole entry): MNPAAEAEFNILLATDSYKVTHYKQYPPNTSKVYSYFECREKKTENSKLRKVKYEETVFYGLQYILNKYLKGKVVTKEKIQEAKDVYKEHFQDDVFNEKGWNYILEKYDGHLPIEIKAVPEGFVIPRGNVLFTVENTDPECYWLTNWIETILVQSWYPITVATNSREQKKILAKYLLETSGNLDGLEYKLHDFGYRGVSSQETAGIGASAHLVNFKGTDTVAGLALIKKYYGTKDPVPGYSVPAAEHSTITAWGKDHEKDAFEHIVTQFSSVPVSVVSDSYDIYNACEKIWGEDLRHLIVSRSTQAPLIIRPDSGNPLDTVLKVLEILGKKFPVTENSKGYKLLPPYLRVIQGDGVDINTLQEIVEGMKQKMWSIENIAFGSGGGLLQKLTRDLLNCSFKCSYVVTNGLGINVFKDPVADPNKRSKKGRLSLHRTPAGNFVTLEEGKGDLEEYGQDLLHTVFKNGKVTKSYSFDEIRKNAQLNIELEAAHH

Row | Structure (SMILES) | AC1.4 Human [1] [µM] | pEC50 [2] | pEC50 | pEC50 (read-out: EC50 Human, Table A, human recombinant NAMPT, NMN formation, 60 min)
1 | COc1ccc(CNC(=O)NC2CC3(C2)CN(S(=O)(=O)C2CC4CCC2C4)C3)cc1 (centres unmarked) [Compound 130, 1-(2-(bicyclo[2.2.1]heptan-2-ylsulfonyl)-2-azaspiro[3.3]heptan-6-yl)-3-(4-methoxybenzyl)urea] | 18.1 | 4.32 | – | –
2 | COC(=O)C1CCC(S(=O)(=O)N2CC3(CC(NC(=O)NCc4ccc(OC)cc4)C3)C2)CC1 (centres unmarked) [Compound 131, methyl 4-((6-(3-(4-methoxybenzyl)ureido)-2-azaspiro[3.3]heptan-2-yl)sulfonyl)cyclohexane-1-carboxylate] | 17.6 | 4.31 | – | –
3 | COc1ccc(CNC(=O)NC2CC3(C2)CN(C(=O)Nc2cccc(C#N)n2)C3)cc1 [Compound 132, N-(6-cyanopyridin-2-yl)-6-(3-(4-methoxybenzyl)ureido)-2-azaspiro[3.3]heptane-2-carboxamide] | 15.0 | – | 4.37 | –
4 | COc1ccc(CNC(=O)NC2CC3(C2)CN(C(=O)Nc2cnc(C)nc2)C3)cc1 [Compound 133, 6-(3-(4-methoxybenzyl)ureido)-N-(2-methylpyrimidin-5-yl)-2-azaspiro[3.3]heptane-2-carboxamide] | 17.5 | 4.21 | – | –
5 | COc1ccc(CNC(=O)NC2CC3(C2)CN(C(=O)CCc2ccccc2Cl)C3)cc1 [Compound 135, 1-(2-(3-(2-chlorophenyl)propanoyl)-2-azaspiro[3.3]heptan-6-yl)-3-(4-methoxybenzyl) urea] | 3.7 | – | 4.41 | –
6 | COc1ccc(CNC(=O)NC2CC3(C2)CN(C(=O)C2CCCN(C(=O)OC(C)(C)C)C2)C3)cc1 (centres unmarked) [Compound 136, tert-butyl 3-(6-(3-(4-methoxybenzyl)ureido)-2-azaspiro[3.3]heptane-2-carbonyl)piperidine-1-carboxylate] | 9.8 | 4.24 | – | –
7 | COc1ccc(CNC(=O)NC2CC3(C2)CN(C(=O)C2CCCc4ccccc42)C3)cc1 (centres unmarked) [Compound 137, 1-(4-methoxybenzyl)-3-(2-(1,2,3,4-tetrahydronaphthalene-1-carbonyl)-2-azaspiro[3.3]heptan-6-yl)urea] | 13.8 | 4.27 | – | –
8 | COc1ccc(CNC(=O)NC2CC3(C2)CN(C(=O)c2ccncc2)C3)cc1 [Compound 139, 1-(2-isonicotinoyl-2-azaspiro[3.3]heptan-6-yl)-3-(4-methoxybenzyl)urea] | 16.4 | 4.35 | – | –
9 | COc1ccc(CNC(=O)NC2CC3(C2)CN(C(=O)c2ccccc2)C3)cc1 [Compound 141, 1-(2-benzoyl-2-azaspiro[3.3]heptan-6-yl)-3-(4-methoxybenzyl)urea] | 4.7 | 4.31 | – | –
10 | COc1ccc(CNC(=O)NC2CC3(C2)CN(C(=O)C(C)(C)c2ccccc2)C3)cc1 [Compound 142, 1-(4-methoxybenzyl)-3-(2-(2-methyl-2-phenylpropanoyl)-2-azaspiro[3.3]heptan-6-yl)urea] | 1.8 | 4.48 | – | –
11 | COc1ccc(CNC(=O)NC2CC3(C2)CN(C(=O)C2(c4ccccc4)CC2)C3)cc1 [Compound 143, 1-(4-methoxybenzyl)-3-(2-(1-phenylcyclopropane-1-carbonyl)-2-azaspiro[3.3]heptan-6-yl)urea] | 8.0 | 4.34 | – | –
12 | COc1ccc(CNC(=O)NC2CC3(C2)CN(C(=O)c2ccc(=O)n(C)c2)C3)cc1 [Compound 144, 1-(4-methoxybenzyl)-3-(2-(1-methyl-6-oxo-1,6-dihydropyridine-3-carbonyl)-2-azaspiro[3.3]heptan-6-yl)urea] | 16.0 | 4.27 | – | –
13 | COc1ccc(CNC(=O)NC2CC3(C2)CN(C(=O)c2cccc(C)c2)C3)cc1 [Compound 146, 1-(4-methoxybenzyl)-3-(2-(3-methylbenzoyl)-2-azaspiro[3.3]heptan-6-yl)urea] | 4.1 | 4.41 | – | –
14 | COc1ccc(CNC(=O)NC2CC3(C2)CN(C(=O)c2ccc(C(F)(F)F)cc2)C3)cc1 [Compound 147, 1-(4-methoxybenzyl)-3-(2-(4-(trifluoromethyl)benzoyl)-2-azaspiro[3.3]heptan-6-yl)urea] | 5.8 | 4.24 | – | –
15 | COc1ccc(CNC(=O)NC2CC3(C2)CN(C(=O)c2ccccc2C)C3)cc1 [Compound 148, 1-(4-methoxybenzyl)-3-(2-(2-methylbenzoyl)-2-azaspiro[3.3]heptan-6-yl)urea] | 3.9 | 4.33 | – | –
16 | COc1ccc(CNC(=O)NCCCCCCOc2ccccc2)cc1 [Compound 150, 1-(4-methoxybenzyl)-3-(6-phenoxyhexyl)urea] | 2.0 | 5.28 | – | –
17 | CC(C)(C)OC(=O)N1CC[C@]2(C1)C[C@@H](NC(=O)NCc1ccc(Cl)cc1)C2 [Compound 151, tert-butyl (2r,4s)-2-(3-(4-chlorobenzyl)ureido)-6-azaspiro[3.4]octane-6-carboxylate] | 6.8 | 4.39 | – | –

Row | Structure (SMILES) | AC1.4 Human [1] [µM] | pEC50 [2] | pEC50 | pEC50 (read-out: EC50 Human, Table A, human recombinant NAMPT, NMN formation, 60 min)
18 | CC(C)(C)OC(=O)N1CC[C@]2(C1)C[C@H](NC(=O)NCc1ccc(Cl)cc1)C2 [Compound 152, tert-butyl (2s,4r)-2-(3-(4-chlorobenzyl)ureido)-6-azaspiro[3.4]octane-6-carboxylate] | 7.9 | 4.42 | – | –
19 | COc1ccc(CNC(=O)NC2CC3(C2)CN(C(=O)C(C)(C)c2ccc(C)cc2)C3)cc1 [Compound 153, 1-(4-methoxybenzyl)-3-(2-(2-methyl-2-(p-tolyl)propanoyl)-2-azaspiro[3.3]heptan-6-yl)urea] | 2.3 | 4.58 | – | –
20 | COc1ccc(CNC(=O)NC2CC3(C2)CN(C(=O)C(C)(C)c2cccc(C)c2)C3)cc1 [Compound 154, 1-(4-methoxybenzyl)-3-(2-(2-methyl-2-(m-tolyl)propanoyl)-2-azaspiro[3.3]heptan-6-yl)urea] | 2.1 | 4.51 | – | –
21 | COc1ccc(CNC(=O)NC2CC3(C2)CN(C(=O)c2ccc(OC)cc2)C3)cc1 [Compound 155, 1-(2-(4-methoxybenzoyl)-2-azaspiro[3.3]heptan-6-yl)-3-(4-methoxybenzyl)urea] | 2.7 | 4.28 | – | –
22 | COc1ccc(CNC(=O)NC2CC3(C2)CN(C(=O)c2ccc(C#N)cc2)C3)cc1 [Compound 156, 1-(2-(4-cyanobenzoyl)-2-azaspiro[3.3]heptan-6-yl)-3-(4-methoxybenzyl)urea] | 11.0 | 4.34 | – | –
23 | COc1ccc(CNC(=O)NC2CC3(C2)CN(C(=O)c2ccc(C(C)(C)O)cc2)C3)cc1 [Compound 157, 1-(2-(4-(2-hydroxypropan-2-yl)benzoyl)-2-azaspiro[3.3]heptan-6-yl)-3-(4-methoxybenzyl)urea] | 4.1 | 4.32 | – | –
24 | COc1ccc(CNC(=O)NC2CC3(C2)CN(C(=O)c2ccc(Cl)cc2)C3)cc1 [Compound 158, 1-(2-(4-chlorobenzoyl)-2-azaspiro[3.3]heptan-6-yl)-3-(4-methoxybenzyl)urea] | 2.7 | 4.41 | – | –
25 | Cc1ccc(C(=O)N2CC[C@]3(C2)C[C@@H](NC(=O)NCc2ccc(Cl)cc2)C3)cc1 [Compound 159, 1-(4-chlorobenzyl)-3-((2r,4s)-6-(4-methylbenzoyl)-6-azaspiro[3.4]octan-2-yl)urea] | 8.7 | 4.64 | – | –
26 | Cc1cc(C(=O)N2CC[C@]3(C2)C[C@@H](NC(=O)NCc2ccc(Cl)cc2)C3)ccn1 [Compound 160, 1-(4-chlorobenzyl)-3-((2r,4s)-6-(2-methylisonicotinoyl)-6-azaspiro[3.4]octan-2-yl)urea] | 13.6 | 4.37 | – | –
27 | COc1ccc(C(=O)N2CC[C@]3(C2)C[C@@H](NC(=O)NCc2ccc(Cl)cc2)C3)cc1 [Compound 163, 1-(4-chlorobenzyl)-3-((2r,4s)-6-(4-methoxybenzoyl)-6-azaspiro[3.4]octan-2-yl)urea] | 12.4 | 4.55 | – | –
28 | COc1ccc(C(=O)N2CC[C@]3(C2)C[C@H](NC(=O)NCc2ccc(Cl)cc2)C3)cc1 [Compound 165, 1-(4-chlorobenzyl)-3-((2s,4r)-6-(4-methoxybenzoyl)-6-azaspiro[3.4]octan-2-yl)urea] | 15.9 | 4.31 | – | –
29 | Cc1cnccc1C(=O)N1CC[C@]2(C1)C[C@@H](NC(=O)NCc1ccc(Cl)cc1)C2 [Compound 166, 1-(4-chlorobenzyl)-3-((2r,4s)-6-(3-methylisonicotinoyl)-6-azaspiro[3.4]octan-2-yl)urea] | 14.2 | 4.37 | – | –
30 | O=C(NCc1ccc(Cl)cc1)N[C@H]1C[C@]2(CCN(C(=O)c3ccc(F)cc3)C2)C1 [Compound 167, 1-(4-chlorobenzyl)-3-((2r,4s)-6-(4-fluorobenzoyl)-6-azaspiro[3.4]octan-2-yl)urea] | 11.8 | 4.56 | – | –
31 | COC(=O)C1CC2(CC(NC(=O)NCc3ccc(Cl)cc3)C2)C1 (centres unmarked) [Compound 168, methyl 6-(3-(4-chlorobenzyl)ureido)spiro[3.3]heptane-2-carboxylate] | 9.5 | – | – | 4.41
32 | CC(C)c1cccc(C(=O)N2CC[C@]3(C2)C[C@@H](NC(=O)NCc2ccc(Cl)cc2)C3)c1 [Compound 169, 1-(4-chlorobenzyl)-3-((2r,4s)-6-(3-isopropylbenzoyl)-6-azaspiro[3.4]octan-2-yl)urea] | 7.1 | 5.03 | – | –
33 | O=C(NCc1ccc(Cl)cc1)N[C@H]1C[C@]2(CCN(c3ncccn3)C2)C1 [Compound 170, 1-(4-chlorobenzyl)-3-((2s,4r)-6-(pyrimidin-2-yl)-6-azaspiro[3.4]octan-2-yl)urea] | 15.1 | 4.33 | – | –
34 | Cc1cc(N2CC[C@]3(C2)C[C@@H](NC(=O)NCc2ccc(Cl)cc2)C3)ccn1 [Compound 171, 1-(4-chlorobenzyl)-3-((2r,4s)-6-(2-methylpyridin-4-yl)-6-azaspiro[3.4]octan-2-yl)urea] | 17.3 | 4.60 | – | –
